What was measured:
CDK7/Cyclin H/MNAT1 = CDK7/Cyclin H/MNAT1 (Homo sapiens, UniProt P50613); experiment: Inhibition of CDK7/Cyclin H/MNAT1 kinase activity (ADP-Glo); type: biochemical; conditions: mean value from several measurements; read-out: IC50 CDK7/Cyclin H/MNAT
Description: (§1) Measurements were carried out in a 5 μl reaction volume using a 384-well plate (Corning Inc., order no. 4513). The analyzed substances were titrated from 50 μM in increments of 4 at 11 concentration points in a normal strength kinase buffer A (Thermo Fisher Scientific Inc, cat. no. PV3189) supplemented with DTT (Sigma, orde. no. 646563-10X.5ML) and prepared with water (Panreac, order no. 701074). Kinase was diluted in an analogous buffer, mixed with test compounds in plate wells and preincubated for 10 minutes at 25° C. Following incubation, a mixture of reaction substrate (CDKtide (SignalChem, order no. C06-58) or Histone H1 (SignalChem, order no. H10-54N) or PDKtide (SignalChem, order no. P10-58) and ATP (SignalChem, order no. V915B) prepared on a normal strength kinase buffer A was added. 1% solution of dimethyl sulfoxide (DMSO) (Sigma-Aldrich, order no. D2438) in the reaction volume was used as a negative control. The final concentrations of all reaction components are shown in Table 5. The plate was centrifuged at 400 rcf (Eppendorf, 5804 R) for 1 minute and incubated for 40-60 minutes at 25° C. The amount of ATP consumed in the kinase reaction was then measured using the ADP-Glo™ detection system. Luminescence signal was measured using Spark 20M tablet multifunction reader (Tecan Group Ltd, Switzerland). IC50 value was calculated using Magellan 7.2 (Tecan Group Ltd, Switzerland) by approximating experimental points by four-parameter model with the optimization by Levenberg-Marquardt:
(§2) [formula] • where A is the upper asymptote; D is the lower asymptote; C is IC50, half-maximal inhibitory concentration of kinase, nM; B is the curvature (slope).

[1] = General cytotoxicity on primary differentiated HepaRG cells (72 h); type: cell-based; conditions: human, general toxicity, mean value from several measurements
Excerpt: General cytotoxicity of CDK7 inhibitors according to the present invention was investigated using primary differentiated HepaRG cells (Biopredic Int, order no. HPR101). A week before the measurement, the cells were thawed and maintained in Basal hepatic cell medium (Biopredic Int, order no. MIL700079) supplemented with HepaRG maintenance/metabolism medium supplement with antibiotics (Biopredic Int, order no. ADD620C). The medium in vials with cells was changed every 2-3 days. The night before the test, the cells were plated in wells of 96-well plates (Corning Inc., order no. 3599) at 25×10^3 cells in 100 μl of medium per well. The next day, test compounds were introduced into plate wells with cells, untitrated at a concentration ranging from 200 μM to 0.2 nM, and incubated for 72 hours. Cell viability was assessed as described above.

CDK9/Cyclin K = CDK9/Cyclin K (Homo sapiens, UniProt P50750); experiment: Inhibition of CDK9/Cyclin K kinase activity (ADP-Glo); type: biochemical; conditions: mean value from several measurements; read-out: IC50 CDK9/Cyclin K
Description: as §1, §2

CDK2/Cyclin A = CDK2/Cyclin A (Homo sapiens, UniProt P24941); experiment: Inhibition of CDK2/Cyclin A kinase activity (ADP-Glo); type: biochemical; conditions: mean value from several measurements; read-out: IC50 CDK2/Cyclin A
Description: as §1, §2

[2] = test system: MDA-MB-468 (triple negative breast cancer); experiment: Antiproliferative assay on MDA-MB-468 cells (AlamarBlue, 96 h); type: cell-based; conditions: Homo sapiens, mean value from several measurements
Description: The antiproliferative activity of CDK7 inhibitors according to the present invention was evaluated in a cell test using continuous cell cultures: MDA-MB-468 (triple negative breast cancer, ATCC® HTB-132™) and NCl-H82 (small cell lung cancer, ATCC® HTB-175™) using a viable AlamarBlue dye (Thermo Fisher Scientific Inc, order no. DAL1100). The cells were grown in DMEM (PanEco, order no. C330π) and RPMI-1640 (PanEco, order no. C330π), respectively. The basal growth medium was enriched with L-glutamine at a concentration of 2 mM (PanEco, order no. Φ032) and 10% fetal bovine serum (Gibco, order no. 16140-071). The night before measurement, MDA-MB-468 adherent cells were detached from plastic with a solution of trypsin-EDTA (PanEco, order no. Π039π), the solution was then inactivated by a DMEM complete medium, centrifuged at 1000 RPM (Eppendorf, 5804 R), a suspension of cells was prepared in a DMEM complete medium, introduced into 96-well culture plates (Corning Inc, order no. 3599) at 8×10^3 cells in 100 μl of medium per well. The next day, test compounds were dissolved in DMSO and diluted with a DMEM complete medium to a final concentration ranging from 50 μM to 10 pM. Diluted compounds in a volume of 50 μl were introduced into the plate wells with cells in triplicates (the final concentration of DMSO was no more than 1%) and incubated at 37° C. in an incubator with 5% CO2 for 96 hours. NCl-H82 suspension cell line was prepared on the day of the analysis. 10×10^3 cells in 100 μl of an RPMI-1640 complete medium were added to each well of a 96-well plate. The procedure for sample dilution is as described above. Cells with test compounds were incubated at 37° C. in an incubator with 5% CO2 for 120 hours. Following incubation, […] of AlamarBlue reagent (Thermo Fisher Scientific Inc., order no. DAL1100) was added to the wells, the contents of the plates were stirred in an orbital shaker (Biosan, Latvia), then further incubated for 5.5-6 hours at 37° C. in an incubator with 5% CO2. The number of viable cells was detected using the Infinite M200Pro microplate spectrophotometer (Tecan Group Ltd, Switzerland) by way of measuring a fluorescent signal at an excitation wavelength (λEx) of 540 nm and an emission wavelength (λEm) of 590 nm.
IC50 value was calculated using the Magellan software (Tecan Group Ltd, Switzerland) by approximating experimental points by four-parameter model with the optimization by Levenberg-Marquardt: […]

Chain of CDK7/Cyclin H/MNAT1 (P50613 whole entry): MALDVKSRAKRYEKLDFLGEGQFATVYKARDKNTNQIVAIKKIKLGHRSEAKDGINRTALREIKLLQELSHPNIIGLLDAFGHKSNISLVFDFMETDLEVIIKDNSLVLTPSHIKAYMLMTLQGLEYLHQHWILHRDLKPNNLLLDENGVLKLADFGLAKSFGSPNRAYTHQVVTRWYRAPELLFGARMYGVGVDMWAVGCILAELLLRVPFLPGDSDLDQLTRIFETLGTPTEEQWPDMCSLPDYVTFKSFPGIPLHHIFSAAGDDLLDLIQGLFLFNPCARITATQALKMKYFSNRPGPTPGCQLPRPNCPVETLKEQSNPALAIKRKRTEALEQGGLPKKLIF
Chain of CDK7/Cyclin H/MNAT1 (P51946 whole entry partner): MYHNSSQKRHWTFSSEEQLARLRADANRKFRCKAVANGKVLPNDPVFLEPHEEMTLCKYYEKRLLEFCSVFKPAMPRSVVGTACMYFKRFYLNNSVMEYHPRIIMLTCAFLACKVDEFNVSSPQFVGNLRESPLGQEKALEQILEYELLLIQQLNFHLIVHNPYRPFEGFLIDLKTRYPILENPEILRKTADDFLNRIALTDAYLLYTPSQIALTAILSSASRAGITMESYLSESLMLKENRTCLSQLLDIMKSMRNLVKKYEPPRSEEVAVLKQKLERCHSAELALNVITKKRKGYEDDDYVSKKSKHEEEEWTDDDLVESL
Chain of CDK7/Cyclin H/MNAT1 (P51948 whole entry partner): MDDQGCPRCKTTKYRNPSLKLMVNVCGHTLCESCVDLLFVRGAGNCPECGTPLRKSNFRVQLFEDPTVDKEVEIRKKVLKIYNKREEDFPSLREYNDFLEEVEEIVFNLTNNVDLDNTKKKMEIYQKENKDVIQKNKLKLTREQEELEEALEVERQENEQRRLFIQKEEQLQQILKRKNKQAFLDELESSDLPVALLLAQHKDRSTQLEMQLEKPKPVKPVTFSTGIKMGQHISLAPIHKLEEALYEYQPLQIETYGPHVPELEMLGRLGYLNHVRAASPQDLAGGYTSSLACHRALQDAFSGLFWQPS
Chain of CDK9/Cyclin K (P50750 whole entry): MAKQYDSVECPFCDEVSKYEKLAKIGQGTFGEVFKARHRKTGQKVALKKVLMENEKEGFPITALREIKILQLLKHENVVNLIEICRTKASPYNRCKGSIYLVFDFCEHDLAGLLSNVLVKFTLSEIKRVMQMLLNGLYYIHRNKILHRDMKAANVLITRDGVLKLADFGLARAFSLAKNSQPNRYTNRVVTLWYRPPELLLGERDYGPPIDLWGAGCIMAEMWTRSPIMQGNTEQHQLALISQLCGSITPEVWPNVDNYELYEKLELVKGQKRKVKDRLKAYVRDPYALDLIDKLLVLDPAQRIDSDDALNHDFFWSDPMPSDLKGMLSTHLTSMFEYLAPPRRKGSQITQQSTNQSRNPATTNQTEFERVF
Chain of CDK9/Cyclin K (O75909 whole entry partner): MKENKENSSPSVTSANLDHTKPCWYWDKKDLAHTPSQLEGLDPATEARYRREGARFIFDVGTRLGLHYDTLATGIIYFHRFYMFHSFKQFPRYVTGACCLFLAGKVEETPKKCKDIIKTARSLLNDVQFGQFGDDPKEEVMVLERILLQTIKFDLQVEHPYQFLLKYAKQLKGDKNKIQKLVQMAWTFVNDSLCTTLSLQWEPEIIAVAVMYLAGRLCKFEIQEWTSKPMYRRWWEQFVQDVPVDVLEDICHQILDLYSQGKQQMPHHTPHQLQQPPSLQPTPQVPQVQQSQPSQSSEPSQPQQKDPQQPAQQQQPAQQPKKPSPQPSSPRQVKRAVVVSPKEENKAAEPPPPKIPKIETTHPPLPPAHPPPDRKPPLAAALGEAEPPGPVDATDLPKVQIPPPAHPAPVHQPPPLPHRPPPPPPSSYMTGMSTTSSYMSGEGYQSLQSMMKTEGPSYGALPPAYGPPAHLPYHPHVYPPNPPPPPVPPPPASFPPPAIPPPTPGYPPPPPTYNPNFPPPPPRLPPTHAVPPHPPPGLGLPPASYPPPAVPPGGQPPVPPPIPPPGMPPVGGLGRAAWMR

Row | SMILES | IC50 (CDK7/Cyclin H/MNAT1) | CC50 at 72 h [1] | IC50 (CDK9/Cyclin K) | IC50 (CDK2/Cyclin A) | IC50 [2]
1 | CN1CCN(C(=O)c2cc(-c3nc(N[C@H]4CCCNC4)ncc3C(F)(F)F)c[nH]2)CC1 [CDK7_539, 4-[5-(4-methylpiperazine-1-carbonyl)-1H-pyrrol-3-yl]-N-[(3S)-piperidin-3-yl]-5-(trifluoromethyl) pyrimidin-2-amine] | 5 to 50 nM | > 2000 nM | 50 to 200 nM | > 200 nM | 100 to 1000 nM
2 | O=C(Nc1ncc[nH]1)c1cc(-c2nc(N[C@H]3CCCNC3)ncc2C(F)(F)F)c[nH]1 [CDK7_833, N-(1H-imidazol-2-yl)-4-(2-{[(3S)-piperidin-3-yl]amino}-5-(trifluoromethyl)pyrimidin-4-yl)-1H-pyrrole-2-carboxamide] | 5 to 50 nM | 500 to 2000 nM | 50 to 200 nM | > 200 nM | 100 to 1000 nM
3 | O=C(Nc1nccs1)c1cc(-c2nc(N[C@H]3CCCNC3)ncc2C(F)(F)F)c[nH]1 [CDK7_834, 4-(2-{[(3S)-piperidin-3-yl]amino}-5-(trifluoromethyl)pyrimidin-4-yl)-1N-(1,3-thiazol-2-yl)-1H-pyrrole-2-carboxamide] | 5 to 50 nM | 100 to 500 nM | 5 to 50 nM | > 200 nM | 10 to 100 nM
4 | O=C(Nc1ccncc1)c1cc(-c2nc(N[C@H]3CCCNC3)ncc2C(F)(F)F)c[nH]1 [CDK7_836, 4-(2-{[(3S)-piperidin-3-yl]amino}-5-(trifluoromethyl)pyrimidin-4-yl)-N-(pyridin-4-yl)-1H-pyrrole-2-carboxamide] | 5 to 50 nM | 500 to 2000 nM | 50 to 200 nM | > 200 nM | 100 to 1000 nM
5 | N#Cc1ccc(NC(=O)c2cc(-c3nc(N[C@H]4CCCNC4)ncc3C(F)(F)F)c[nH]2)cc1 [CDK7_837, N-(4-cyanophenyl)-4-(2-{[(3S)-piperidin-3-yl]amino}-5-(trifluoromethyl)pyrimidin-4-yl)-1H-pyrrole-2-carboxamide] | 50 to 200 nM | 500 to 2000 nM | > 200 nM | > 200 nM | 100 to 1000 nM
6 | CNC(=O)c1cc(-c2nc(N[C@H]3CCCNC3)ncc2C(F)(F)F)c[nH]1 [CDK7_846, N-methyl-4-(2-{[(3S)-piperidin-3-yl]amino}-5-(trifluoromethyl)pyrimidin-4-yl)-1H-pyrrole-2-carboxamide] | 5 to 50 nM | 500 to 2000 nM | 5 to 50 nM | > 200 nM | 10 to 100 nM
7 | O=C(NCC(F)(F)F)c1cc(-c2nc(N[C@H]3CCCNC3)ncc2C(F)(F)F)c[nH]1 [CDK7_847, 4-(2-{[(3S)-piperidin-3-yl]amino}-5-(trifluoromethyl)pyrimidin-4-yl)-N-(2,2,2-trifluoroethyl)-1H-pyrrole-2-carboxamide] | 5 to 50 nM | 100 to 500 nM | 5 to 50 nM | > 200 nM | 10 to 100 nM
8 | CS(=O)(=O)CCNC(=O)c1cc(-c2nc(N[C@H]3CCCNC3)ncc2C(F)(F)F)c[nH]1 [CDK7_848, N-(2-methanesulfon-ylethyl)-4-(2-{[(3S)-piperidin-3-yl]amino}-5-(trifluoromethyl)pyrimidin-4-yl)-1H-pyrrole-2-carboxamide] | 5 to 50 nM | > 2000 nM | 5 to 50 nM | > 200 nM | > 1000 nM
9 | O=C(c1cc(-c2nc(N[C@H]3CCCNC3)ncc2C(F)(F)F)c[nH]1)N1CCOCC1 [CDK7_849, 4-[5-(morpholine-4-carbonyl)-1H-pyrrol-3-yl]-N-[(3S)-piperidin-3-yl]-5-(trifluoromethyl) pyrimidin-2-amine] | < 5 nM | 500 to 2000 nM | 50 to 200 nM | > 200 nM | 10 to 100 nM
10 | O=C(NC1CCOCC1)c1cc(-c2nc(N[C@H]3CCCNC3)ncc2C(F)(F)F)c[nH]1 [CDK7_850, N-(oxan-4-yl)-4-(2-{[(3S)-piperidin-3-yl]amino}-5-(trifluoromethyl)pyrimidin-4-yl)-1H-pyrrole-2-carboxamide] | 5 to 50 nM | > 2000 nM | 50 to 200 nM | > 200 nM | 100 to 1000 nM
11 | O=C(NC1CCC(O)CC1)c1cc(-c2nc(N[C@H]3CCCNC3)ncc2C(F)(F)F)c[nH]1 (stereo partly drawn) [CDK7_851, N-(4-hydroxycyclo-hexyl)-4-(2-{[(3S)-piperidin-3-yl]amino}-5-(trifluoromethyl)pyrimidin-4-yl)-1H-pyrrole-2-carboxamide] | 5 to 50 nM | > 2000 nM | 50 to 200 nM | > 200 nM | > 1000 nM
12 | CN(C)C(=O)c1nc(-c2nc(N[C@H]3CCCNC3)ncc2C(F)(F)F)c[nH]1 [CDK7_966, N,N-dimethyl-4-(2-{[(3S)-piperidin-3-yl]amino}-5-(trifluoromethyl)py-rimidin-4-yl)-1H-imidazole-2-carboxamide] | 5 to 50 nM | > 2000 nM | > 200 nM | > 200 nM | 100 to 1000 nM
13 | FC(F)(F)c1cnc(N[C@H]2CCCNC2)nc1-c1cc[nH]c1 [CDK7_972, N-[(3S)-piperidin-3-yl]-4-(1H-pyrrol-3-yl)-5-(trifluoromethyl)py-rimidin-2-amine] | 5 to 50 nM | 500 to 2000 nM | 50 to 200 nM | > 200 nM | 100 to 1000 nM
14 | O=C(NCc1ccccc1)c1cc(-c2nc(N[C@H]3CCCNC3)ncc2C(F)(F)F)c[nH]1 [CDK7_997, N-benzyl-4-(2-{[(3S)-piperidin-3-yl]amino}-5-(trifluoromethyl)pyrimidin-4-yl)-1H-pyrrole-2-carboxamide] | 5 to 50 nM | 500 to 2000 nM | 50 to 200 nM | > 200 nM | 100 to 1000 nM
15 | CN(Cc1ccccc1)C(=O)c1cc(-c2nc(N[C@H]3CCCNC3)ncc2C(F)(F)F)c[nH]1 [CDK7_998, N-benzyl-N-methyl-4-(2-{[(3S)-piperidin-3-yl]amino}-5-(trifluoromethyl)pyrimidin-4-yl)-1H-pyrrole-2-carboxamide] | 5 to 50 nM | > 2000 nM | > 200 nM | > 200 nM | > 1000 nM
